# According to patent publication US5741917A, “Process for the preparation of acyloxyalkanesulfonates having improved properties” (Hoechst Aktiengesellschaft, priority 1995, dated 1998):
# Conditions: deionized water
substance,measurement,value
sodium C13 to C15 -acylisethionate [Example 4],Water solubility (maximum concentration giving a clear solution),10%
